Results taken from the supplement of paper PMC10307832.

Columns and labels:
Experiment in all cases: relative viability (nuclei count vs DMSO), 5 days (fraction); higher = more cells survive
BAY61-3606 + Bortezomib = compound: COC1=C(C=C(C=C1)C2=CC3=NC=CN3C(=N2)NC4=C(C=CC=N4)C(=O)N)OC [BAY61-3606] + CC(C)C[C@H](NC(=O)[C@H](Cc1ccccc1)NC(=O)c1cnccn1)B(O)O [Bortezomib] (partner 0.002 µM)
Summary of the method: (§1)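 Dosing by pin tool came one day after lung cancer cell lines were seeded in 1536-well plates, using either one drug or a fixed anchor-drug dose plus five library-drug doses (not always all listed) in √10 steps. After 5 days, nuclei were counted on 4× images. Relative viability is treated-well nuclei count divided by vehicle-well nuclei count, and values are medians of duplicate plates.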

BAY61-3606 + Linsitinib = compound: COC1=C(C=C(C=C1)C2=CC3=NC=CN3C(=N2)NC4=C(C=CC=N4)C(=O)N)OC [BAY61-3606] + C[C@]1(O)C[C@@H](c2nc(-c3ccc4ccc(-c5ccccc5)nc4c3)c3c(N)nccn32)C1 [Linsitinib] (partner 1 µM)
Summary of the method: as §1

[1] = compound: COc1cccc2c1C(=O)c1c(O)c3c(c(O)c1C2=O)C[C@@](O)(C(=O)CO)C[C@@H]3O[C@H]1C[C@H](N)[C@H](O)[C@H](C)O1 [Doxorubicin] + CC(=O)c1c(C)c2cnc(Nc3ccc(N4CCNCC4)cn3)nc2n(C2CCCC2)c1=O [Palbociclib] (partner 0.5 µM)
Summary of the method: as §1

Doxorubicin + Dasatinib = compound: COc1cccc2c1C(=O)c1c(O)c3c(c(O)c1C2=O)C[C@@](O)(C(=O)CO)C[C@@H]3O[C@H]1C[C@H](N)[C@H](O)[C@H](C)O1 [Doxorubicin] + Cc1nc(Nc2ncc(C(=O)Nc3c(C)cccc3Cl)s2)cc(N2CCN(CCO)CC2)n1 [Dasatinib] (partner 0.075 µM)
Summary of the method: as §1

Cell Line | relative viability (BAY61-3606 + Bortezomib; first compound 0.02 µM) | relative viability (BAY61-3606 + Bortezomib; first compound 0.06325 µM) | relative viability (BAY61-3606 + Bortezomib; first compound 0.2 µM) | relative viability (BAY61-3606 + Bortezomib; first compound 0.6325 µM) | relative viability (BAY61-3606 + Bortezomib; first compound 2 µM) | relative viability (BAY61-3606 + Linsitinib; first compound 0.02 µM) | relative viability (BAY61-3606 + Linsitinib; first compound 0.06325 µM) | relative viability (BAY61-3606 + Linsitinib; first compound 0.2 µM) | relative viability (BAY61-3606 + Linsitinib; first compound 0.6325 µM) | relative viability (BAY61-3606 + Linsitinib; first compound 2 µM) | relative viability ([1]; first compound 0.001 µM) | relative viability ([1]; first compound 0.003162 µM) | relative viability ([1]; first compound 0.01 µM) | relative viability ([1]; first compound 0.03162 µM) | relative viability ([1]; first compound 0.1 µM) | relative viability (Doxorubicin + Dasatinib; first compound 0.001 µM) | relative viability (Doxorubicin + Dasatinib; first compound 0.003162 µM) | relative viability (Doxorubicin + Dasatinib; first compound 0.01 µM) | relative viability (Doxorubicin + Dasatinib; first compound 0.03162 µM) | relative viability (Doxorubicin + Dasatinib; first compound 0.1 µM)
PC-14 | 0.829 | 0.883 | 0.801 | 0.949 | 0.728 | 1.05 | 1.04 | 0.916 | 0.968 | 0.826 | 0.532 | 0.501 | 0.312 | 0.194 | 0.0531 | 0.28 | 0.184 | 0.22 | 0.0983 | 0.0282
RERF-LC-KJ | 1.2 | 1.13 | 1.06 | 1.17 | 0.85 | 0.844 | 0.918 | 0.852 | 0.886 | 0.807 | 1.07 | 1.15 | 0.921 | 0.542 | 0.653 | 0.85 | 0.83 | 0.706 | 0.318 | 0.278
SK-LU-1 | 1.38 | 1.15 | 1.12 | 1.21 | 0.961 | 1.13 | 1.21 | 0.987 | 0.984 | 0.482 | 0.351 | 0.414 | 0.351 | 0.333 | 0.355 | 0.158 | 0.193 | 0.166 | 0.124 | 0.116
SW 1573 | 1.16 | 1.18 | 0.971 | 1.02 | 0.66 | 0.821 | 0.762 | 0.803 | 0.674 | 0.625 | 0.365 | 0.316 | 0.162 | 0.0939 | 0.0476 | 0.544 | 0.452 | 0.174 | 0.106 | 0.0634
